Experimental data reported in ChEMBL document CHEMBL5356974, “Development of MPS1 Inhibitors: Recent Advances and Perspectives” (J Med Chem, 2023).

What was measured:
[1] = molecular target: T1, Dual specificity protein kinase TTK (Homo sapiens) (UniProt P33981); settings: dose 100.0 nM
T1 sequence (whole entry): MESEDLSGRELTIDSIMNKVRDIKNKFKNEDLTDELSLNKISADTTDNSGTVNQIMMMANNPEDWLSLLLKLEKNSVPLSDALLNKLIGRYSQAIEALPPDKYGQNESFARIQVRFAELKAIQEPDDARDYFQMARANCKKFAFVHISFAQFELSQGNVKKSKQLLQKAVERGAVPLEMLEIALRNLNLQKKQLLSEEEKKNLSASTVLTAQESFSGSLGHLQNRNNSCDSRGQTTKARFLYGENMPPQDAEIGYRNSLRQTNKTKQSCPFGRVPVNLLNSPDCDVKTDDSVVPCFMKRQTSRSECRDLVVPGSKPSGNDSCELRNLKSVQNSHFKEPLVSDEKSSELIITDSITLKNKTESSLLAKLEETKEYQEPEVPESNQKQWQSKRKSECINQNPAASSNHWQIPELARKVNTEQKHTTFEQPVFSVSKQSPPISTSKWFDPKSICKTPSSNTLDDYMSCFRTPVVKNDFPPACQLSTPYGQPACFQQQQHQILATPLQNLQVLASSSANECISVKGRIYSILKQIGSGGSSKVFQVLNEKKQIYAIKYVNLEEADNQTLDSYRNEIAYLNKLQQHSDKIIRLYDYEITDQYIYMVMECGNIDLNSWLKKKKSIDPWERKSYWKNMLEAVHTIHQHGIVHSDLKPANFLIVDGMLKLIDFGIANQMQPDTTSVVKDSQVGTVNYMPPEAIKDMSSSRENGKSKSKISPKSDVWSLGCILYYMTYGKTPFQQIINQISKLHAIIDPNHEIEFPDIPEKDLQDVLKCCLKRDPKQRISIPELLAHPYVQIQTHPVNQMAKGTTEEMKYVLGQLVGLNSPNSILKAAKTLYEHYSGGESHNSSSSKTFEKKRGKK

[2] = molecular target: Mitogen-activated protein kinase 10 (Homo sapiens) (UniProt P53779); test: Inhibition of JNK3 (unknown origin) relative to control; settings: concentration not given here
Chain of Mitogen-activated protein kinase 10 (Homo sapiens) (P53779 whole entry): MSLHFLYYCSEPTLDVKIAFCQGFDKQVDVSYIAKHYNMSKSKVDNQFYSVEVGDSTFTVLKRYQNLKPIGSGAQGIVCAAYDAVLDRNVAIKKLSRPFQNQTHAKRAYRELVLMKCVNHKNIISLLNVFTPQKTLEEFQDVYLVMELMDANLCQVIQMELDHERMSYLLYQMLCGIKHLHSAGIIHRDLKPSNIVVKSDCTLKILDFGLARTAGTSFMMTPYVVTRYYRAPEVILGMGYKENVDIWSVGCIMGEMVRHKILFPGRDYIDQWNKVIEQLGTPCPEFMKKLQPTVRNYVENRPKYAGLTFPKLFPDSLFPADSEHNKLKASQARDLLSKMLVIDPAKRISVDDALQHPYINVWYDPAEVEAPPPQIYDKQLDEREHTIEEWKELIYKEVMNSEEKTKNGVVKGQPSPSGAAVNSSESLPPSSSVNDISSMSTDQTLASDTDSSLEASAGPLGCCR

[3] = molecular target: T2, Serine/threonine-protein kinase NLK (Homo sapiens) (UniProt Q9UBE8); test: Inhibition of NLK (unknown origin) relative to control; settings: concentration not given here
T2 sequence (whole entry): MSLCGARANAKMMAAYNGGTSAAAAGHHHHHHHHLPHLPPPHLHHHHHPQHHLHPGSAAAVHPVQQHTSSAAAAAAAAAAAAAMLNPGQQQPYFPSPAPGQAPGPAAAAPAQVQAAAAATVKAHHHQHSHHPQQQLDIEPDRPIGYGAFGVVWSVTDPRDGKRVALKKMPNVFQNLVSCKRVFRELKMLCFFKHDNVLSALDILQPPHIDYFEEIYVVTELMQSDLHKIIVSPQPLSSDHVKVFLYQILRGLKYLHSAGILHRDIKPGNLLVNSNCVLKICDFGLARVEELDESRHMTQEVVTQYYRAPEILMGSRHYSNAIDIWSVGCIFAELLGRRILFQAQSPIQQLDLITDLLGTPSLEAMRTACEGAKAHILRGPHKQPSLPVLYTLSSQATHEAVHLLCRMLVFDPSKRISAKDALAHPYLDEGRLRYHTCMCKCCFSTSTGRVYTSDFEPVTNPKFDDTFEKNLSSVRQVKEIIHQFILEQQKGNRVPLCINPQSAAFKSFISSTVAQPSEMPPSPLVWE

[4] = molecular target: Mitogen-activated protein kinase 9 (Homo sapiens) (UniProt P45984); test: Inhibition of JNK2 (unknown origin) relative to control; settings: concentration not given here
Chain of Mitogen-activated protein kinase 9 (Homo sapiens) (P45984 whole entry, looked up): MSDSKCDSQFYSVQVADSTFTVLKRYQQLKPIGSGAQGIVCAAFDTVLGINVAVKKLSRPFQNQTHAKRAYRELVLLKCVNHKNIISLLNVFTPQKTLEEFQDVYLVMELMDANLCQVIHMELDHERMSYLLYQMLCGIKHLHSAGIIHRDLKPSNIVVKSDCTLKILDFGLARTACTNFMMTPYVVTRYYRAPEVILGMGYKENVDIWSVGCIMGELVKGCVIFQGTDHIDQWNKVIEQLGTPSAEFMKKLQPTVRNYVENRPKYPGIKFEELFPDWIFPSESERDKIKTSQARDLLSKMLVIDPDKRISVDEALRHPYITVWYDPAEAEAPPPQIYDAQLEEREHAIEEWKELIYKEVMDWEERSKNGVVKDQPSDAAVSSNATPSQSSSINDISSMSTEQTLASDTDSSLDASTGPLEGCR

[5] = molecular target: T3, Dual specificity protein kinase TTK (Homo sapiens, UniProt P33981); test: Inhibition of full-length MPS1 (unknown origin) using fluorescein-labeled MBP-derived peptide as substrate preincubated for 1 hr followed by substrate addition measured after 2 hrs in presence of ATP by FP assay
T3 sequence (P33981 whole entry): T1 sequence (whole entry)

inhibition [1] [%] | inhibition [2] [%] | inhibition [3] [%] | inhibition [4] [%] | IC50 [5] [nM] | SMILES
> 90 | – | – | – | – | CCc1nn(CCOCCOC)c(CC)c1NC(=O)c1ccn2c1CCc1cnc(Nc3ccc(N4CCN(C)CC4)cc3OC)nc1-2
– | 80 | 80 | 80 | – | Cn1cc(-c2cc3cnc(Nc4ccc(-c5cncn5C)cc4Cl)cc3n2C(=O)OC(C)(C)C)cn1
> 90 | – | – | – | 1.2 | CCc1n[nH]c(CC)c1NC(=O)c1ccn2c1CCc1cnc(Nc3ccc(N4CCN(C)CC4)cc3OC)nc1-2
– | – | – | – | 7.6 | CN1CCC(c2ccc(Nc3ncc4c(n3)-n3ccc(C(N)=O)c3CC4)cc2)CC1
